The record followed here is PMC9527238, “Glutamate and GABAA receptor crosstalk mediates homeostatic regulation of neuronal excitation in the mammalian brain” (Signal Transduction and Targeted Therapy, 2022).

Holding throughout (assay): Patch clamp, HEK293, double mutant α1β2 GABAAR
Format in all cases: cell-based
Conditions in all cases: HEK293, read-out: Glutamate potentiation of GABA currents, % of control, normalized to wild-type α1β2
A general note: In patch-clamp work, channel activity is measured electrically.

One test concerns the target T1, αE137GβE181G GABAAR (Rattus norvegicus, UniProt P62813+P63138, E164G/E206G).
T1 construct: expressed in transfected cells; host or cells: HEK293
From the text: (§1) The subunits are color-coded individually. The boxed regions are further enlarged in the middle panels, highlighting the predicted glutamate binding pocket in the α+ and β− interface, just below the loop C. […] Relative potentiation was obtained by normalizing potentiation observed in the mutated receptor to that in the respective wild-type receptor.
(§2) To further investigate the characteristics of these four residues, double amino acid substitutions were introduced at residue pairs that are located at different (α1β2) subunits (Fig. 3f and Supplementary Fig. S6b).
(§3) HEK293 cells were cultured in DMEM (Invitrogen) supplemented with 10% fetal bovine serum. Cells were grown to 40–60% confluence and transiently transfected using Lipofectamine 2000 (Invitrogen) with 1:0.5–1 plasmid/lipid ratio. Cells were transfected with a pBK-CMV expression vector containing a rat recombinant GABAAR α, β or γ subunits. Co-transections were done with a plasmid ratio of 1:1 αβ and 2:2:1 for αβγ subunit combinations, respectively. pcDNA3.1-GFP was also co-transfected along with GABAAR subunits as a transfected marker in order to facilitate the visualization of the transfected cells during electrophysiological experiments. Cells were re-plated on glass coverslips after 15–20 h transfection and were cultured for an additional 15–24 h before whole-cell patch-clamp recordings.
(§4) The site-directed mutagenesis of α, β or γ subunits were performed by using the QuikChange method (Stratagene). […] Wild-type or mutant subunits were transfected in HEK293 cells and subjected to electrophysiology examinations.
(§5) Whole-cell patch-clamp recordings were performed under voltage-clamp mode using an Axopatch 200B or 1D patch-clamp amplifier (Molecular Devices) on HEK293 cells and cultured neurons. Whole-cell currents were recorded at a holding potential of −60 mV, and signals were filtered at 2 kHz, digitized at 10 kHz (Digidata 1322 A). Recording pipettes (3–5 MΩ) were filled with the intracellular solution that contained (mM): CsCl 140, HEPES 10, Mg-ATP 4, QX-314 5, pH 7.20; osmolarity, 290–295 mOsm. BAPTA (10 mM) was added in the intracellular solution.

Test [1] has as its target T2, αK104βE181G GABAAR (α1 K104D and β2 E181G) (Rattus norvegicus, UniProt P62813+P63138, E206G/K131D).
T2 construct: expressed in transfected cells; host or cells: HEK293
Description: as §1, §2, §3, §4, §5

The target in another test is T3, αK104D,E137Gβ GABAAR (Rattus norvegicus, UniProt P62813+P63138, E164G/K131D).
T3 construct: expressed in transfected cells; host or cells: HEK293
Description: as §1, §2, §3, §4, §5

T1 sequence (P62813 28-455 E164G): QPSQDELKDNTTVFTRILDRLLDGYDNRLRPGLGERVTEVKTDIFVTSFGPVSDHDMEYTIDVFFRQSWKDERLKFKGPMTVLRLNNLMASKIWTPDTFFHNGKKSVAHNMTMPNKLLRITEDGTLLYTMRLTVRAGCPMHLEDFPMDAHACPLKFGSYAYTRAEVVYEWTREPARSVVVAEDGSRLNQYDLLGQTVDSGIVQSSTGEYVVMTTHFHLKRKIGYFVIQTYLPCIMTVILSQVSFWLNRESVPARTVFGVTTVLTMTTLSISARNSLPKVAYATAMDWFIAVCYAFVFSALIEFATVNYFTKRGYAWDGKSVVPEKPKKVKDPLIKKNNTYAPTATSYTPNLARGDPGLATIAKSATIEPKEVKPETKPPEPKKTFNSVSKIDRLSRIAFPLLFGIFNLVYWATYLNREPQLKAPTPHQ
T1 sequence (P63138 26-474 E206G): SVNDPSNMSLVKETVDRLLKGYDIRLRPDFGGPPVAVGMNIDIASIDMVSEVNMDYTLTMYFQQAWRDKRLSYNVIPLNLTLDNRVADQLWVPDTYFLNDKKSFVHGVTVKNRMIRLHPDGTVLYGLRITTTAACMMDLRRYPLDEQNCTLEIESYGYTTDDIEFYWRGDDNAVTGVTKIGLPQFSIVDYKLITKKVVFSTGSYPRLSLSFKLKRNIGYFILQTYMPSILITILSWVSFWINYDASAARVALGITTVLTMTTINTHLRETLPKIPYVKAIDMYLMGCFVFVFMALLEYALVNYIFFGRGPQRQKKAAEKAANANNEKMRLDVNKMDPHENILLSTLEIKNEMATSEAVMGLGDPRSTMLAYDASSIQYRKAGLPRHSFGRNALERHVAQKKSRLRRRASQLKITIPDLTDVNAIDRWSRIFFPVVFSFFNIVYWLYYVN
T2 sequence (P62813 28-455 K131D): as the sequence (P62813 28-455 E164G) above, with K104D, G137E counted along it
T2 sequence (P63138 26-474 E206G): as the sequence (P63138 26-474 E206G) above
T3 sequence (P62813 28-455 K131D/E164G): as the sequence (P62813 28-455 E164G) above, with K104D counted along it
T3 sequence (P63138 25-474 limits assumed): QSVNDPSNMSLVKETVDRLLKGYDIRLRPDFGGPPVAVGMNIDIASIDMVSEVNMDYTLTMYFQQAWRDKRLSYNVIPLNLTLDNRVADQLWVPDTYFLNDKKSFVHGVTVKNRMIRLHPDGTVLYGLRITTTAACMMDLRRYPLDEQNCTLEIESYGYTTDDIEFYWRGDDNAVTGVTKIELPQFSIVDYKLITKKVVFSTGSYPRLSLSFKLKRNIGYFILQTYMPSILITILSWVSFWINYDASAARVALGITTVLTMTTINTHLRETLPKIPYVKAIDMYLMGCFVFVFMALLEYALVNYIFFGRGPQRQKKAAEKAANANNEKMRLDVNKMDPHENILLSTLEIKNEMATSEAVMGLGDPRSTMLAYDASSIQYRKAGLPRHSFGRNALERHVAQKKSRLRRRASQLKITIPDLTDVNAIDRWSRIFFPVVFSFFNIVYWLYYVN

Take `N[C@@H](CCC(=O)O)C(=O)O` [glutamate, Glutamate]: the activity at 100 µM stood at 9.2 ± 3% on αE137GβE181G GABAAR (glutamate 100 μM), 6.6% in test [1] (glutamate 100 μM) and 17.3 ± 12.9% at αK104D,E137Gβ GABAAR (glutamate 100 μM). Besides, the activity at 1000 µM at αE137GβE181G GABAAR (glutamate 1 mM) stood at 16.2 ± 1.3%; in test [1] (glutamate 1 mM), 27.4 ± 12.6%; at αK104D,E137Gβ GABAAR (glutamate 1 mM), 45.9 ± 20.9%.
